Key:
Format in all cases: in vivo
[1] = system: Plutella xylostella; test: Diamond back moth (Plutella xylostella) stomach poison leaf dip test; details: for activity in [%]: 10 ppm, scale 0% no biological activity to 100% total control
Method: The test solution is prepared at the day of use.
Leaves of Chinese cabbage are dipped in test solution and air-dried. Treated leaves are placed in petri dished lined with moist filter paper. Mortality is recorded 24, 72, and 120 hours after treatment.
The biological tests were conducted as described above.

[2] = system: Megoura viciae; test: Vetch aphid (Megoura viciae) leaf disk test; details: foliar, 120 h, 2500 ppm, adult aphids on sprayed broad bean leaf disks, 5 days, read-out: mortality in comparison with untreated controls
Method: For evaluating control of vetch aphid (Megoura viciae) through contact or systemic means the test unit consisted of 24-well-microtiter plates containing broad bean leaf disks.
The compounds were formulated using a solution containing 75% v/v water and 25% v/v DMSO. Different concentrations of formulated compounds were sprayed onto the leaf disks at 2.5 μl, using a custom built micro atomizer, at two replications.
After application, the leaf disks were air-dried and 5-8 adult aphids placed on the leaf disks inside the microtiter plate wells. The aphids were then allowed to suck on the treated leaf disks and incubated at about 23±1° C. and about 50±5% relative humidity for 5 days. Aphid mortality and fecundity was then visually assessed.

[3] = system: Myzus persicae; test: Green peach aphid (Myzus persicae) artificial diet test; details: 72 h, 2500 ppm, adult aphids on treated artificial diet, 3 days, read-out: mortality in comparison with untreated controls
Source text: For evaluating control of green peach aphid (Myzus persicae) the test unit consisted of 96-well-microtiter plates containing liquid artificial diet under an artificial membrane.
The compounds were formulated using a solution containing 75% v/v water and 25% v/v DMSO. Different concentrations of formulated compounds were pipetted into the aphid diet, using a custom built pipetter, at two replications.
After application, 5-8 adult aphids were placed on the artificial membrane inside the microtiter plate wells. The aphids were then allowed to suck on the treated aphid diet and incubated at about 23±1° C. and about 50±5% relative humidity for 3 days. Aphid mortality and fecundity was then visually assessed.

[4] = system: Aedes aegypti; test: Aedes aegypti neonate larvae motility assay; details: larval motility, dose response
Method: Compounds formulated in 100% DMSO are tested in microtiter plates containing 180 ul 1× Luria Broth media and 10 neonate A. aegypti larvae. The efficacy of a compound is determined based on the motility of the larvae as compared to average motility of control wells containing DMSO only. A dose response assay is conducted with compounds with >80% reduction in motility in the primary assay to determine an EC50 value. Selected compounds are advanced to insecticide secondary assays.

[5] = system: Anthonomus grandis; test: Boll weevil (Anthonomus grandis) diet/egg test; details: 120 h, 2500 ppm, egg and larval mortality, 5 days, read-out: mortality in comparison with untreated controls
Method: For evaluating control of boll weevil (Anthonomus grandis) the test unit consisted of 24-well-microtiter plates containing an insect diet and 20-30 A. grandis eggs.
The compounds were formulated using a solution containing 75% v/v water and 25% v/v DMSO. Different concentrations of formulated compounds were sprayed onto the insect diet at 20 μl, using a custom built micro atomizer, at two replications.
After application, microtiter plates were incubated at about 23±1° C. and about 50±5% relative humidity for 5 days. Egg and larval mortality was then visually assessed.

[6] = system: Ceratitis capitata; test: Mediterranean fruitfly (Ceratitis capitata) diet/egg test; details: 120 h, 2500 ppm, egg and larval mortality, 5 days, read-out: mortality in comparison with untreated controls
Method: For evaluating control of Mediterranean fruitfly (Ceratitis capitata) the test unit consisted of microtiter plates containing an insect diet and 50-80 C. capitata eggs.
The compounds were formulated using a solution containing 75% v/v water and 25% v/v DMSO. Different concentrations of formulated compounds were sprayed onto the insect diet at 5 nl, using a custom built micro atomizer, at two replications.
(§1) After application, microtiter plates were incubated at about 28±1° C. and about 80±5% relative humidity for 5 days. Egg and larval mortality was then visually assessed.

[7] = system: Heliothis virescens; test: Tobacco budworm (Heliothis virescens) diet/egg test
Method: For evaluating control of tobacco budworm (Heliothis virescens) the test unit consisted of 96-well-microtiter plates containing an insect diet and 15-25 H. virescens eggs.
The compounds were formulated using a solution containing 75% v/v water and 25% v/v DMSO. Different concentrations of formulated compounds were sprayed onto the insect diet at 10 μl, using a custom built micro atomizer, at two replications.
as §1
The biological activity shown tables under CB.1 and CB.2 was evaluated on scale range from 0% as showing no biological activity to 100% as having total control. The biological tests were conducted as described above.

| SMILES | activity in [%] [1] | mortality at 2500 ppm [2] | mortality at 2500 ppm [3] | EC50 [4] | mortality at 500 ppm ([1]; Plutella xylostella, foliar, 500 ppm, dipped Chinese cabbage leaves, stomach poison, read-out: mortality in comparison with untreated controls) | mortality at 2500 ppm [5] | mortality at 2500 ppm [6] | activity in [%] ([7]; 800 ppm, scale 0% no biological activity to 100% total control) | mortality at 2500 ppm ([7]; Heliothis virescens, 120 h, 2500 ppm, egg and larval mortality, 5 days, read-out: mortality in comparison with untreated controls) |
| --- | --- | --- | --- | --- | --- | --- | --- | --- | --- |
| CC(C#N)(CCC(F)(F)F)S(=O)(=O)CCC(F)(F)C(F)(F)F (stereo not shown) [CE. 2, reference compound] | 0% |  |  |  |  |  |  |  |  |
| CC(C#N)(CCSC(F)(F)F)S(=O)(=O)CCC(F)(F)C(F)(F)F (stereo not shown) [II-2, 2-Methyl-2-(3,3,4,4,4-pentafluoro-butane-1-sulfonyl)-4-trifluoromethyl-sulfanyl-butyronitrile] | 100% |  |  |  |  |  |  |  |  |
| N#CC(CCSC(F)(F)F)S(=O)(=O)CCC(F)(F)C(F)(F)F (stereo not shown) [II-1, 2-(3,3,4,4,4-Pentafluoro-butane-1-sulfonyl)-4-trifluoromethylsulfanyl-butyronitrile] |  | > 90% | > 90% | < 5 µg/mL | > 90% | > 90% | > 90% | 100% | > 90% |

Source: patent US8846569B2, “Pesticidal bis-organosulfur compounds” (Merial Limited, priority 2009, dated 2014)
